The source of these data is patent US7592344B2, “NK1 and NK2-antagonists and compositions and methods of using the same” (Solvay Pharmaceuticals GmbH, priority 2005, dated 2009).

Each structure is given as a SMILES string.

One assay deals with T1, NK1 receptors (Cavia porcellus, UniProt P30547).
T1 construct: from tissue; host or cells: whole animal: anesthetized Pirbright-White guinea pigs
Put plainly: Functional NK1 antagonism on isolated guinea pig aorta rings (inhibition of Substance P-induced relaxation). As to conditions: phenylephrine tone, 0.01 μmol Substance P. Here is the method:
3. Determining of the Functional NK1 Antagonism of the Test Substances on Isolated Guinea Pig Tissue In Vitro
The action antagonistic to NK1 receptors of the test substances was measured in vitro on isolated ring preparations, kept in an oxygenated nutrient solution, of the aortas of Pirbright-White guinea pigs.
In order to measure the contraction of the vessel muscles, the preparations were fixed to a hook, joined by a thread to a force measuring apparatus and the contractions were recorded in each case on a plotter. The aorta preparations were tonicized with phenylephrine. […] The relaxations before and after the administration of the test substance were qualified in percent. The effective concentration of the half maximum inhibition of the relaxation of the tone (=EC50) was calculated. The negative common logarithm of the EC50 value (=pEC50) was given as characteristic variable. The pEC50 value is a measurement of the functional effectiveness of the test substances on NK1 receptors.

The target of another assay is T2, human NK2 receptor (Homo sapiens, UniProt P21452).
T2 sequence (P21452 1-398): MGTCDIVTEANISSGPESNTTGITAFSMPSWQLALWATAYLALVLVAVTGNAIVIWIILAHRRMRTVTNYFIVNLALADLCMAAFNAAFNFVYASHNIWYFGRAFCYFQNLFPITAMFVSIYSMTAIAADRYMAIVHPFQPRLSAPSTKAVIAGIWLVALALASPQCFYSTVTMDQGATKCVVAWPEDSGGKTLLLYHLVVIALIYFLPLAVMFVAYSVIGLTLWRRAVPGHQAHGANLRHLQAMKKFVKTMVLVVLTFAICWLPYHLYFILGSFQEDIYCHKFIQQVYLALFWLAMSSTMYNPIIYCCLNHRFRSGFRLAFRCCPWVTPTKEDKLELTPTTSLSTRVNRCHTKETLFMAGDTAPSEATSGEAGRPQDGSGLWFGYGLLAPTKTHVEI
Put plainly: Binding power to NK2 receptors in vitro ([3H]-SR 48968 displacement, CHO cell membranes). Particulars: human NK2 receptor in CHO membranes, ligand [3H]-SR 48968, 90 min incubation. More on the design: expressed in transfected cells; host or cells: CHO cells (membrane preparation). As to the method:
The affinity of the test substances to human NK2 receptors was measured in vitro. The ability of the test substances to displace the selective NK2 receptor antagonist SR 48968 (=saredutant) used as reference ligand from its corresponding bond was determined.
The receptor binding studies were carried out with radioactively marked [^3H]-SR 48968 (from Amersham) as ligand. For the binding test, different samples of a membrane preparation of CHO cells (=egg cells of the Chinese hamster, […]), which express the human NK2 receptor (for preparation, see N. P. Gerard et al., Journal of Biological Chemistry 265/33 (1990) 20455-20462), were incubated for 90 minutes (=min.) with a solution of the marked ligand, with the incubation mixtures containing no test substance or additions of different concentrations of test substance. Then in each case the membrane-bound ligands in the samples were separated from free ligands by filtration. The fraction remaining in the filter was washed several times with buffer solution, before its radioactivity was measured using a liquid scintillation counter. That concentration which effects half-maximum displacement of the bound reference ligand was determined as IC50 of the respective test substance. The inhibition constant (Ki value) of the test substance was calculated from the respective IC50 value, and was stated as the negative logarithmized value thereof (pKi).
If several measurements were performed, the average thereof was listed each time. The pKi value is a measurement of the affinity of the test substances to human NK2 receptors.

The next assay has as its target human NK1 receptor (Homo sapiens, UniProt P25103). The assay can be described thus: Binding power to NK1 receptors in vitro ([3H]-Substance P displacement, CHO cell membranes). Also on record: expressed in transfected cells; host or cells: CHO cells (membrane preparation). As to conditions: human NK1 receptor in CHO membranes, ligand [3H]-Substance P. As to the method: 1. Determination of the Binding Power of the Test Substances to NK1 Receptors In Vitro.
Affinity of the test substances to human NK1 receptors was measured in vitro.
The receptor binding studies were performed with [^3H]-Substance P as ligand. For the binding test, different samples of a membrane preparation of CHO cells (=egg cells of the Chinese hamster, […]), which express the human NK1 receptor (“Accession Number” of the associated nucleic acid sequence=M74290; “Accession Number” of the associated protein sequence=P25103; cf. Takeda, Y.; Chou, K. B., Takeda, J.; Sachais, B. S. and Krause, J. E; Biochemical and Biophysical Research Communications, 179(3) (1991) 1232-1240), were incubated with a solution of the marked ligand, with the incubation mixtures containing no test substance or additions of different concentration of test substance. Then, separation of bound and free ligands was performed in each of the samples with the aid of glass-fiber filtration. The fraction remaining in the filter was washed several times with buffer solution and then the radioactivity of the fraction remaining in the filter was measured using a beta scintillation counter.
For the compounds of Examples 1 to 14, that concentration which effects half maximum displacement of the bound ligand was determined as IC50 of the respective test substance. From this, the corresponding inhibition constant (Ki value) of the test substance was calculated, and was stated as the negative common logarithm of the Ki value (=pKi value) The pKi value is a measurement of the affinity of the test substances to human NK1 receptors.

Another assay addresses T3, NK2 receptors (Cavia porcellus, UniProt Q64077).
T3 construct: from tissue; host or cells: whole animal: anesthetized Pirbright-White guinea pigs
T3 sequence (Q64077 1-402): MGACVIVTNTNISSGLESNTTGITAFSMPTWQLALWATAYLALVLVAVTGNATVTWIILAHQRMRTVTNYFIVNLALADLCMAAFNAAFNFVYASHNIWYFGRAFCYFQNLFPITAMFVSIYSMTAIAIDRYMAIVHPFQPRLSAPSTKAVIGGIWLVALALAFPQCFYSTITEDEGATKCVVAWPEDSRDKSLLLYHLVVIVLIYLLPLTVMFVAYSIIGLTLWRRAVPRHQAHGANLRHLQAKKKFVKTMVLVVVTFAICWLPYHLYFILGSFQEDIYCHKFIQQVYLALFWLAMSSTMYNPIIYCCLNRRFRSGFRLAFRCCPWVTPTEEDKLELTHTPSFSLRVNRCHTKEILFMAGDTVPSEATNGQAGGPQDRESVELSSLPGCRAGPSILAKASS
The assay can be described thus: Functional NK2 antagonism on isolated guinea pig gall-bladder (inhibition of NKA-induced contraction). Particulars: NKA 0.1 μmol/l, two hours' incubation, IC50 in mol/l. As to the method: 4. Determination of the Functional […] of the Test Substances on Isolated Guinea Pig Tissue In Vitro.
The NK2 receptor-antagonizing action of the test substances was determined on isolated gall-bladder preparations from Pirbright-White guinea pigs, held in an oxygen-saturated nutrient solution. To this end, the preparations were fastened on one hand in the nutrient solution to organ holders and on the other hand on a force meter by a thread.
The concentration of the test substances was increased iteratively in the subsequent experiments as a function of the result in logarithmic whole or half steps, until at least one concentration above or below 50% inhibition of contraction was determined (up to at most 10^−5 mol/l). For each concentration, the average value of inhibition of contraction was calculated from 2 to 4 preparations. In each case, the concentration of half-maximum inhibition (IC50) per test substance was calculated as characteristic variable. In each case the logarithmized value of the IC50 per test substance is given as plC50 in [mol/l].

Sequence of human NK1 receptor (P25103 whole entry): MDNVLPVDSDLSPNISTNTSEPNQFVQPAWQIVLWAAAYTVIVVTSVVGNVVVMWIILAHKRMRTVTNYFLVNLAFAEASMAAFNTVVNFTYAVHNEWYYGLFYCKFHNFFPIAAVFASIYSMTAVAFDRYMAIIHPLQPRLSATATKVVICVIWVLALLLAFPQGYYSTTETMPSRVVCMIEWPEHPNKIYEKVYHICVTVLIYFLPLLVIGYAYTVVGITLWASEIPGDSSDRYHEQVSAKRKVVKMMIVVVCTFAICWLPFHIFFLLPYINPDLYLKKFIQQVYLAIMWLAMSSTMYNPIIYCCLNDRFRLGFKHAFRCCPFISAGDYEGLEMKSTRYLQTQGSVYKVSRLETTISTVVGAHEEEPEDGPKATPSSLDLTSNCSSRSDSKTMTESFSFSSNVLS
T1 sequence (P30547 whole entry): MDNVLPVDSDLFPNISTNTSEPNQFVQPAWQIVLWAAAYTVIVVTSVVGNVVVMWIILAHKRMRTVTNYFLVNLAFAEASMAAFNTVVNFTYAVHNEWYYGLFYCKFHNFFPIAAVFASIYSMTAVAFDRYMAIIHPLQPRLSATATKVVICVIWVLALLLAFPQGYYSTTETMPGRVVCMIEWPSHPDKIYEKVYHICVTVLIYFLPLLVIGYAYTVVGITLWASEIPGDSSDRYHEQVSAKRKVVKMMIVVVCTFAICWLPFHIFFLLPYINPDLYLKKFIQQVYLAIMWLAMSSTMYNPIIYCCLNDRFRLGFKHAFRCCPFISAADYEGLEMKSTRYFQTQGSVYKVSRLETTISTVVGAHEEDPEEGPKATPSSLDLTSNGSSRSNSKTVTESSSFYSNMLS

Regarding `CN(CC(CCN1CCN(C(c2ccsc2)C(O)C(O)C(O)CO)CC1)c1ccc(Cl)c(Cl)c1)C(=O)c1cc(C#N)cc2ccccc12` (stereo not shown) [Compound 5], on NK1 receptors, the pEC50 (usually the EC50 on a negative log10 scale, so that one unit is a factor of ten) is listed as 10.0. On human NK2 receptor, the “pKi (NK2)” value is given as 7.3. For the same molecule, on human NK1 receptor, the “pKi (NK1)” value was 8.9. Moreover, the pIC50 (commonly the negative decadic logarithm of the IC50, by convention in mol/L) against NK2 receptors is given as 7.5.
